# Source: patent US6441036B1 (priority 1998, dated 2002)
# Legend:
# [1] = 28 days toxicity study in dogs (GLP); assay type: in vivo
# Source text: A 28 days toxicity study in dogs according to GLP guide-lines has been performed by Corning Hazleton (Europe), England. […] Some lipid related parameters were lowered in the animals given high dosages. This is consistent with the pharmacological activity of TTA.
# [2] = system: Salmonella typhimurium; assay: Test for mutagenic activity in Salmonella typhimurium strains; assay type: cell-based; conditions: 3-1000 mg/plate (TTA), 2-5000 mg/plate (TSA)
# Source text: (§1) Tests for mutagenic activity have been performed by Covance Laboratories Limited, England. […] Furthermore, TTA was not mutagenic when tested in mouse lymphoma cells […] L5178Y.
# [3] = system: Escherichia coli; assay: Test for mutagenic activity in Escherichia coli strains; assay type: cell-based; conditions: 3-1000 mg/plate (TTA), 2-5000 mg/plate (TSA)
# Source text: as §1
# [4] = system: mouse lymphoma cells, L5178Y; assay: Mutagenicity test in mouse lymphoma cells L5178Y; assay type: cell-based; conditions: concentration 2.5-50 mg/ml
# Source text: as §1
# [5] = Lipid lowering effect in normal Wistar rats (Example 4); assay type: in vivo; conditions: gavage once daily for 7 days; dose mg/day/kg body weight: TSA 15, EPA 1500, TTA 150
# Description: Male Wistar rats, weighing 180-200 g at the start of the experiment, were housed individually in metal wire cages in a room maintained at 12 h light-dark cycles and a constant temperature of 20±3° C. The animals were acclimatised for one week under these conditions before the start of the experiments.
# TTA, TSA and eicosapentaenoic acid (EPA) were suspended in 0.5% (w/v) carboxymethyl cellulose (CMC). Six animals were used for each treatment, and a 0.5% CMC solution was administrated to the rats as control. After administration of the test compound, the rats were fasted for 12 hours and anaesthetised with haloethan. The EPA and the fatty acid derivatives were administered by gastric intubation (gavage) once daily for 7 days. Blood samples were collected by cardiac puncture, and lipid concentrations in plasma were determined as outlined in the method section.
# [6] = Body weight gain, liver and adipose tissue weight in young obese Zucker rats (Example 9); assay type: in vivo, obese Zucker (fa/fa) rats; conditions: 5 week-old male rats, TTA 300/kg/day in 0.5% CMC, 11 days; means ± SD
# Description: The obese Zucker (fa/fa) rats used in this study were bred at the U 465 INSERM animal facility from pairs originally provided by the Harriet G. Bird Laboratory (Stow, Mass., USA). Unless otherwise stated, the animals were maintained under a constant light-dark cycle (light from 7:00 a.m. to 7:00 p.m.) at 21±1° C. and were given free access to food and water. Three rats were housed per cage. Weight gains were recorded daily.
# 5 week-old male obese Zucker (fa/fa) rats fed with TTA, 300/kg/day suspended in 0.5% CMC. Control animals received CMC only. Following 11 days of treatment, rats were killed by cervical dislocation, liver and epididymal adipose tissue pads were dissected out and weighed. Data are means±SD of 6 animals in the control- and 6 animals in the experimental group.
# [7] = Weight reduction in dogs (Example 10); assay type: in vivo; conditions: male dogs, 500 mg/kg/day orally in capsules
# Description: 3 male dogs (4-6 months old) were housed singly during the days. Each animal was offered 400g of SQC Diet A each morning after dosing and any residue diet was removed in the afternoon. The drug was administered orally in capsules once daily for 28 days.
# [8] = High fat diet induced hyperinsulinemia (Example 11); assay type: in vivo, Wistar Charles River rats; conditions: HF diet supplemented with TTA, 21 days, overnight fast
# Description: (§2) Glucose (GLU, Boehringer Mannheim, Germany), free fatty acids (NEFA, C ACS-ACOD kit; Wako Chemicals, Dalton, USA) and b-hydroxybutyrate (310-A kit; Sigma Diagnostics Inc., St. Louis, USA) concentrations were measured using enzymatic methods. Insulin concentrations were determined with radioimmunoassay by (CIS bio International, Gif sur Yvette, France) using rat insulin as standard in the Zucker rats. In the Wistar Charles River rats, plasma glucose concentrations were measured with the aid of Beckman Glucose Analyzer (Fullerton, Calif., USA). Plasma insulin levels were measured using a RIA kit from Linco Research Inc. (St. Charles, Mo., USA). Phospholipids were measured by the enzymatic method of bioMérieux, Marcy-l{grave over ( )}Etoile, France, Triacylglycerol by the Technicon Method no. SA4-0324L90, USA and Cholesterol by the Technicon Method no. SA4-0305L90, USA.
# Rats weighing 280-360 g were divided into 3 groups (n=6) and fed with three different diets: standard rat chow, high fat diet (HF) and HF supplemented with TTA. After 21 days on their respective diets, blood was collected after an overnight fast from the tail vein. The data are shown as mean±SEM. Results were analysed by ANOVA and different letters denote statistical significance (p<0.05).
# [9] = Blood insulin and glucose in 5 weeks old Zucker (fa/fa) rats (Example 13); assay type: in vivo; conditions: 300 mg/kg/day by oral gavage, 11 days
# Description: as §2
# The rats were administered TTA at a dose of 300 mg/kg/day suspended in 0.5% CMC (n=6) by oral gavage. Following 11 days of treatment, rats were killed by cervical dislocation. Blood was collected and the levels of insulin and glucose measured as indicated in the method section. Data are means±S.D.
# [10] = Blood insulin and glucose in 4 month old obese Zucker (fa/fa) rats (Example 13); assay type: in vivo; conditions: standard chow with 0.15% TTA, 21 days
# Description: as §2
# The rats were given a standard chow diet, either with (n=5) or without (n=6) 0.15% TTA. Following 21 days of treatment, blood was collected and the levels of insulin and glucose measured. Data are means±S.D.
# [11] = Hepatic levels of triacylglycerol (Example 17); assay type: in vivo, Wistar rats; conditions: fed 6 days, no prefeeding; TTA 150 mg/kg/day, TTP 300 mg/kg/day
# Description: Male Wistar rats had free access to water and rat maintenance chow. They were fed palmitic acid or fatty acid analogues suspended in 0.5% CMC for 6 days. In some experiments TTA or TTP were fed for 3 days before feeding both for 6 days. At the end of the experiment the rats were fasted overnight, killed, the liver removed and homogenized. Triacylglycerol was measured in the homogenate.
# [12] = Fatty acid composition in liver and plasma of obese Zucker fa/fa rats (Example 19); assay type: in vivo; conditions: 300 mg/day/kg by gavage once daily for 10 days
# Description: Male obese Zucker fa/fa rats, weighing 100 g at the start of the experiment, were housed in pairs in metal wire cages in a room maintained at 12 h light-dark cycles and a constant temperature of 20±° C. The animals were acclimatised for at least one week under these conditions before the start of the experiment.
# TTA and palmitic acid (control), was suspended in 0.5% (w/v) carboxymethyl cellulose (CMC) and administered at a dose of 300 mg/day/kg body weight, by gastric intubation (gavage) once daily for 10 days. The rats were fasted for 2 hours before termination of the experiment. Blood and organs were collected. Total lipids were extracted from liver and plasma. The lipids were evaporated, saponified and esterified prior to separation using a Carlo Erba 2900 gas-chromatograph.
# [13] = Fatty acid content after 12 weeks administration to rats; assay type: in vivo; conditions: administration to rats for 12 weeks
substance,measurement,setting,value
Tetradecylthioacetic acid [TTA],Lipid related parameters,[1]; animals given high dosages,lowered
same,Body weight,[1]; dose level of 500 mg/kg/day,body weight loss
same,Evidence of toxicity,"[1]; dose levels of 50 or 500 mg/day/kg, 28 days",no evidence of toxicity
same,Tolerability,"[1]; oral administration, dose levels up to 500 mg/kg/day, 28 days",generally well tolerated
same,Induction of mutations,[2],did not induce mutations
same,Induction of mutations,[3],did not induce mutations
same,Mutagenicity,[4],not mutagenic
same,Plasma lipids: cholesterol,[5],30 % reduction of control
same,Plasma lipids: triglycerides,[5],45 % reduction of control
same,Body weight gain,[6],6.23 ± 0.28 g/day
same,Mean body weight,[7]; week 0,9.22 kg
same,Mean body weight,[7]; week 1,8.95 kg
same,Mean body weight,[7]; week 2,8.75 kg
same,Mean body weight,[7]; week 3,8.58 kg
same,Mean body weight,[7]; week 4,8.50 kg
same,High fat diet-induced hyperinsulinemia (FIG. 3),[8],prevents high fat diet-induced hyperinsulinemia
same,Reduction of blood concentration of glucose (FIG. 5),[9],~15%
same,Reduction of blood insulin concentration (FIG. 5),[9],~40%
same,Blood glucose concentration (FIG. 6),[10],reduces
same,Blood insulin concentration (FIG. 6),[10],reduces
same,Hepatic TG (triacylglycerol),[11],7.7 ± 2.9 µmol/g
same,Fatty acid composition in liver: Monounsaturated tetradecylthioacetic acid,[12],1.1 ± 0.2 % of total
same,Fatty acid composition in liver: Oleic acid,[12],14.9 ± 1.0 % of total
same,Fatty acid composition in plasma: Monounsaturated tetradecylthioacetic acid,[12],0.2 ± 0.1 % of total
same,Fatty acid composition in plasma: Oleic acid,[12],22.1 ± 0.5 % of total
same,Hepatic and plasma content of monounsaturated fatty acids (mainly oleic acid),[13],nearly doubled
same,Polyunsaturated fatty acids (mainly linoleic acid and DHA),[13],decreased
